What was measured:
[1] = molecular target: CDK6/Cyclin D1 (Homo sapiens (Human), UniProt Q00534); assay: biochemical; details: CDK6_Ki (nM), non-phosphorylated CDK6/Cyclin D1, 2 mM ATP, Morrison fit
[2] = molecular target: CDK2/Cyclin E1 (Homo sapiens (Human), UniProt P24941); assay: biochemical; details: CDK2_Ki (nM), phosphorylated CDK2/Cyclin E1, 150 μM ATP, Morrison tight-binding fit
Experimental: The assay was initiated with the addition of ATP, following a fifteen minutes pre-incubation of enzyme and inhibitor at room temperature in the reaction mixture. The reaction was stopped after 45 minutes at room temperature by the addition of 50 μL of 80 mM EDTA, pH 7.5.

CDK6/Cyclin D1, sequence (Q00534 whole entry): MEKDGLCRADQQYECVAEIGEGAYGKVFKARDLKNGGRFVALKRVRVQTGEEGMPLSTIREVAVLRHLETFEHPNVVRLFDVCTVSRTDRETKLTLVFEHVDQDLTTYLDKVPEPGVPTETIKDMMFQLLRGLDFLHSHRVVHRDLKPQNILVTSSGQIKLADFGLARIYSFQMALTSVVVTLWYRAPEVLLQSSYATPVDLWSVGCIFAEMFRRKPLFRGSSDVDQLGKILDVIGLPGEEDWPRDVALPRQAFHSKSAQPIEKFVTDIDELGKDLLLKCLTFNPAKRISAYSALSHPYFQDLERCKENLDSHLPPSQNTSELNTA
CDK6/Cyclin D1, sequence (P24385 whole entry partner): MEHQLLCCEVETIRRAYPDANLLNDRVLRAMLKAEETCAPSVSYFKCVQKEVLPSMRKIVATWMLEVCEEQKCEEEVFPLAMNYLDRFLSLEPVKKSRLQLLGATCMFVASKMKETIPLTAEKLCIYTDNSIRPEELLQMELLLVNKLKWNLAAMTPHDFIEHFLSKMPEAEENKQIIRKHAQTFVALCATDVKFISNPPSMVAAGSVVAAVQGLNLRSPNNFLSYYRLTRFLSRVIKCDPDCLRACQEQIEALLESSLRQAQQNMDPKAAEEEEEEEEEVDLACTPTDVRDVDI

Structure (SMILES)	Ki [1]	Ki [2]
Cn1cnc(S(=O)(=O)N2CCC(Nc3ncc4ccc(=O)n([C@@H]5CCC[C@@]5(C)O)c4n3)CC2)c1 (single isomer, unassigned) [Example 84, (−)-8-[(1R*,2R*)-2-hydroxy-2-methylcyclopentyl]-2-({1-[(1-methyl-1H-imidazol-4-yl)sulfonyl]piperidin-4-yl}amino)pyrido[2,3-d]pyrimidin-7(8H)-one]	0.92 nM	0.08 nM
C[C@]1(O)CCC[C@@H]1n1c(=O)c(C(F)F)cc2cnc(NC3CCN(S(N)(=O)=O)CC3)nc21 (single isomer, unassigned) [Example 188, (+)-4-({6-(difluoromethyl)-8-[(1R*,2R*)-2-hydroxy-2-methylcyclopentyl]-7-oxo-7,8-dihydropyrido[2,3-d]pyrimidin-2-yl}amino)piperidine-1-sulfonamide]	2.4 nM	0.7 nM
Cc1cc2cnc(NC3CCN(S(C)(=O)=O)CC3)nc2n([C@H]2COC[C@]2(C)O)c1=O (single isomer, unassigned) [Example 198, (+)-8-[(3R*,4S*)-4-hydroxy-4-methyltetrahydrofuran-3-yl]-6-methyl-2-{[1-(methylsulfonyl)piperidin-4-yl]amino}pyrido[2,3-d]pyrimidin-7(8H)-one]	31 nM	26.9 nM
CS(=O)(=O)N1CCC(Nc2ncc3cc(C(F)F)c(=O)n([C@@H]4CCC[C@@H](O)C4)c3n2)CC1 [Example 212, 6-(difluoromethyl)-8-[(1R,3R)-3-hydroxycyclohexyl]-2-{[1-(methylsulfonyl)piperidin-4-yl]amino}pyrido[2,3-d]pyrimidin-7(8H)-one]	0.17 nM	1.2 nM
CC(C)S(=O)(=O)N1CCC(Nc2ncc3cc(CCO)c(=O)n(C4CCCC4)c3n2)CC1 [Example 136, 8-cyclopentyl-6-(2-hydroxyethyl)-2-{[1-(propan-2-ylsulfonyl)piperidin-4-yl]amino}pyrido[2,3-d]pyrimidin-7(8H)-one]	1.35 nM	3.14 nM
CS(=O)(=O)N1CCC(Nc2ncc3cc(C(F)(F)C(=O)O)c(=O)n(C4CCCC4)c3n2)CC1 [Example 31, (8-cyclopentyl-2-{[1-(methylsulfonyl)piperidin-4-yl]amino}-7-oxo-7,8-dihydropyrido[2,3-d]pyrimidin-6-yl)(difluoro)acetic acid]	0.87 nM	2.43 nM
CC(=O)c1c(C)c2cnc(NC3CCN(S(C)(=O)=O)CC3)nc2n([C@@H]2CCC[C@@]2(C)O)c1=O (single isomer, unassigned) [Example 177, (−)-6-acetyl-8-[(1R*,2R*)-2-hydroxy-2-methylcyclopentyl]-5-methyl-2-{[1-(methylsulfonyl)piperidin-4-yl]amino}pyrido[2,3-d]pyrimidin-7(8H)-one]	0.14 nM	1.22 nM
C[C@]1(O)CCC[C@@H]1n1c(=O)c(CC#N)cc2cnc(NC3CCN(S(C)(=O)=O)CC3)nc21 (single isomer, unassigned) [Example 121, (+)-(8-[(1R*,2R*)-2-hydroxy-2-methylcyclopentyl]-2-{[1-(methylsulfonyl)piperidin-4-yl]amino}-7-oxo-7,8-dihydropyrido[2,3-d]pyrimidin-6-yl)acetonitrile]	0.82 nM	2.15 nM
Cc1cc2cnc(NC3CCN(S(=O)(=O)C4CCS(=O)(=O)C4)CC3)nc2n([C@H]2CCC[C@]2(C)O)c1=O (single isomer, unassigned; isomer c) [Example 108, (+)-2-[(1-{[(3ξ)-1,1-dioxidotetrahydrothiophen-3-yl]sulfonyl}piperidin-4-yl)amino]-8-[(1R*,2R*)-2-hydroxy-2-methylcyclopentyl]-6-methylpyrido[2,3-d]pyrimidin-7(8H)-one-Isomer C]	3.99 nM	3.27 nM
C[C@@]1(O)CCC[C@H]1n1c(=O)ccc2cnc(NC3CCN(S(=O)(=O)C4CCS(=O)(=O)C4)CC3)nc21 (single isomer, unassigned) [Example 70]	0.83 nM	0.35 nM
CS(=O)(=O)N1CCC(Nc2ncc3cc(CC(F)F)c(=O)n([C@@H]4CC[C@@H](O)C4)c3n2)CC1 (single isomer, unassigned) [Example 172, (−)-6-(2,2-difluoroethyl)-8-[(1R*,3R*)-3-hydroxycyclopentyl]-2-{[1-(methylsulfonyl)piperidin-4-yl]amino}pyrido[2,3-d]pyrimidin-7(8H)-one]	2.08 nM	4.38 nM
CNS(=O)(=O)N1CCC(Nc2ncc3cc(C(F)F)c(=O)n([C@@H]4CCC[C@@]4(C)O)c3n2)CC1 (single isomer, unassigned) [Example 130, (−)-4-({6-(difluoromethyl)-8-[(1R*,2R*)-2-hydroxy-2-methylcyclopentyl]-7-oxo-7,8-dihydropyrido[2,3-d]pyrimidin-2-yl}amino)-N-methylpiperidine-1-sulfonamide]	0.43 nM	0.17 nM
Cc1cc2cnc(NC3CCN(S(N)(=O)=O)CC3)nc2n(C2CCCC2)c1=O [Example 25, 4-[(8-cyclopentyl-6-methyl-7-oxo-7,8-dihydropyrido[2,3-d]pyrimidin-2-yl)amino]piperidine-1-sulfonamide]	0.23 nM	0.22 nM

Now from value to molecule:

Ki [1]	Ki [2]	Structure (SMILES)
8.95 nM	5.03 nM	COCCS(=O)(=O)N1CCC(Nc2ncc3ccc(=O)n([C@H]4CCC[C@]4(C)O)c3n2)CC1 (single isomer, unassigned) [Example 73, (+)-8-[(1R*,2R*)-2-hydroxy-2-methylcyclopentyl]-2-({1-[(2-methoxyethyl)sulfonyl]piperidin-4-yl}amino)pyrido[2,3-d]pyrimidin-7(8H)-one]
2.99 nM	0.67 nM	CNS(=O)(=O)N1CCC(Nc2ncc3ccc(=O)n(C4CCCC4)c3n2)CC1 [Example 11, 4-[(8-cyclopentyl-7-oxo-7,8-dihydropyrido[2,3-d]pyrimidin-2-yl)amino]-N-methylpiperidine-1-sulfonamide]
3.15 nM	5.36 nM	C[C@H]1[C@H](O)CC[C@H]1n1c(=O)ccc2cnc(NC3CCN(S(C)(=O)=O)CC3)nc21 (single isomer, unassigned) [Example 210, (−)-8-[(1R*,2R*,3R*)-3-hydroxy-2-methylcyclopentyl]-2-{[1-(methylsulfonyl)piperidin-4-yl]amino}pyrido[2,3-d]pyrimidin-7(8H)-one]
1.11 nM	2.76 nM	CS(=O)(=O)N1CCC(Nc2ncc3cc(Cl)c(=O)n([C@H]4CC[C@H](O)C4)c3n2)CC1 (single isomer, unassigned) [Example 169, (+)-6-chloro-8-[(1R*,3R*)-3-hydroxycyclopentyl]-2-{[1-(methylsulfonyl)piperidin-4-yl]amino}pyrido[2,3-d]pyrimidin-7(8H)-one]
3.9 nM	0.78 nM	CNS(=O)(=O)N1CCC(Nc2ncc3ccc(=O)n([C@H]4C[C@H](O)CC[C@@H]4F)c3n2)CC1 (single isomer, unassigned) [Example 219, (+)-4-({8-[(1S*,2S*,5R*)-2-fluoro-5-hydroxycyclohexyl]-7-oxo-7,8-dihydropyrido[2,3-d]pyrimidin-2-yl}amino)-N-methylpiperidine-1-sulfonamide]
1.99 nM	1.34 nM	C[C@@]1(O)CCC[C@H]1n1c(=O)ccc2cnc(NC3CCN(S(=O)(=O)C(F)(F)F)CC3)nc21 (single isomer, unassigned) [Example 88, (−)-8-[(1R*,2R*)-2-hydroxy-2-methylcyclopentyl]-2-({1-[(trifluoromethyl)sulfonyl]piperidin-4-yl}amino)pyrido[2,3-d]pyrimidin-7(8H)-one]
7 nM	0.29 nM	NS(=O)(=O)N1CCC(Nc2ncc3ccc(=O)n(C4CCCCCC4)c3n2)CC1 [Example 21, 4-[(8-cycloheptyl-7-oxo-7,8-dihydropyrido[2,3-d]pyrimidin-2-yl)amino]piperidine-1-sulfonamide]
1.53 nM	0.51 nM	C[C@@H]1[C@H](O)CC[C@H]1n1c(=O)c(Cl)cc2cnc(NC3CCN(S(C)(=O)=O)CC3)nc21 (single isomer, unassigned) [Example 203, (−)-6-chloro-8-[(1R*,2S*,3R*)-3-hydroxy-2-methylcyclopentyl]-2-{[1-(methylsulfonyl)piperidin-4-yl]amino}pyrido[2,3-d]pyrimidin-7(8H)-one]
3.37 nM	4.13 nM	C[C@]1(O)CCC[C@@H]1n1c(=O)ccc2cnc(NC3CCN(S(=O)(=O)CF)CC3)nc21 (single isomer, unassigned) [Example 59, (+)-2-({1-[(fluoromethyl)sulfonyl]piperidin-4-yl}amino)-8-[(1R*,2R*)-2-hydroxy-2-methylcyclopentyl]pyrido[2,3-d]pyrimidin-7(8H)-one]
0.42 nM	0.27 nM	C[C@H]1CCC[C@H]1n1c(=O)c(Cl)cc2cnc(NC3CCN(S(C)(=O)=O)CC3)nc21 [Example 38, 6-chloro-8-[(1R,2S)-2-methylcyclopentyl]-2-{[1-(methylsulfonyl)piperidin-4-yl]amino}pyrido[2,3-d]pyrimidin-7(8H)-one]
1.09 nM	2.92 nM	Cc1cc2cnc(NC3CCN(S(C)(=O)=O)CC3)nc2n([C@@H]2C[C@H](O)C[C@@H]2C)c1=O (single isomer, unassigned) [Example 199, (−)-8-[(1R*,2S*,4R*)-4-hydroxy-2-methylcyclopentyl]-6-methyl-2-{[1-(methylsulfonyl)piperidin-4-yl]amino}pyrido[2,3-d]pyrimidin-7(8H)-one]
1.27 nM	5.22 nM	C[C@H]1[C@@H](O)CC[C@@H]1n1c(=O)c(C(F)F)cc2cnc(NC3CCN(S(C)(=O)=O)CC3)nc21 (single isomer, unassigned) [Example 205, (+)-6-(difluoromethyl)-8-[(1 R*,2S*,3R*)-3-hydroxy-2-methylcyclopentyl]-2-{[1-(methylsulfonyl)piperidin-4-yl]amino}pyrido[2,3-d]pyrimidin-7(8H)-one]
